Mutagenic call data for four compounds are collected here from PubChem BioAssay AID1259407 (Chemical Carcinogenesis Research Information System (CCRIS), 2018).

The structures appear in SMILES notation. Activity calls are given as the source filed them. The rule behind the calls is not given here.

For the data set, the system named is CCRIS mutagenicity, Ames/micronucleus/aberration tests. As to the kind of experiment: CCRIS mutagenicity studies.
Setting [1] is: Test System: AMES SALMONELLA TYPHIMURIUM, Strain/Indicator: TA98, Metabolic Activation: NONE, Method: PREINCUBATION
[2] abbreviates: Test System: AMES SALMONELLA TYPHIMURIUM, Strain/Indicator: TA100, Metabolic Activation: NONE, Method: PREINCUBATION
Setting [3] is: Test System: AMES SALMONELLA TYPHIMURIUM, Strain/Indicator: TA1535, Metabolic Activation: NONE, Method: PREINCUBATION
Where [4] appears, read: Test System: AMES SALMONELLA TYPHIMURIUM, Strain/Indicator: TA1537, Metabolic Activation: NONE, Method: PREINCUBATION
Where [5] appears, read: Test System: AMES SALMONELLA TYPHIMURIUM, Strain/Indicator: TA98, Metabolic Activation: NONE, Method: STANDARD PLATE.
Where [6] appears, read: Test System: AMES SALMONELLA TYPHIMURIUM, Strain/Indicator: TA98, Metabolic Activation: RAT, LIVER, S-9, AROCLOR 1254, Method: STANDARD PLATE.
Where [7] appears, read: Test System: AMES SALMONELLA TYPHIMURIUM, Strain/Indicator: TA100, Metabolic Activation: NONE, Method: STANDARD PLATE.
[8] abbreviates: Test System: AMES SALMONELLA TYPHIMURIUM, Strain/Indicator: TA100, Metabolic Activation: RAT, LIVER, S-9, AROCLOR 1254, Method: STANDARD PLATE.
Where [9] appears, read: Test System: AMES SALMONELLA TYPHIMURIUM, Strain/Indicator: TA102, Metabolic Activation: NONE, Method: STANDARD PLATE.

`O=[N+]([O-])c1c(Cl)c(Cl)cc(Cl)c1Cl`: the mutagenic call is, setting by setting: (End Point: IN VITRO CHROMOSOMAL ABERRATIONS, Test System: CHINESE HAMSTER OVARY CELLS, Metabolic Activation: NONE) “inactive; negative”; (End Point: IN VITRO CHROMOSOMAL ABERRATIONS, Test System: CHINESE HAMSTER OVARY CELLS, Metabolic Activation: RAT, LIVER, S-9, AROCLOR 1254) “inactive; negative”; (Test System: AMES SALMONELLA TYPHIMURIUM, Strain/Indicator: TA98, Metabolic Activation: HAMSTER, LIVER, S-9, AROCLOR 1254, Method: PREINCUBATION) “inactive; negative”; under setting [1], “inactive; negative”; (Test System: AMES SALMONELLA TYPHIMURIUM, Strain/Indicator: TA98, Metabolic Activation: RAT, LIVER, S-9, AROCLOR 1254, Method: PREINCUBATION) “inactive; negative”; (Test System: AMES SALMONELLA TYPHIMURIUM, Strain/Indicator: TA100, Metabolic Activation: HAMSTER, LIVER, S-9, AROCLOR 1254, Method: PREINCUBATION) “inactive; negative”. Moreover, the mutagenic call is “inactive; negative” under setting [2]; “inactive; negative” (Test System: AMES SALMONELLA TYPHIMURIUM, Strain/Indicator: TA100, Metabolic Activation: RAT, LIVER, S-9, AROCLOR 1254, Method: PREINCUBATION); “inactive; negative” (Test System: AMES SALMONELLA TYPHIMURIUM, Strain/Indicator: TA1535, Metabolic Activation: HAMSTER, LIVER, S-9, AROCLOR 1254, Method: PREINCUBATION); “inactive; negative” under setting [3]; “inactive; negative” (Test System: AMES SALMONELLA TYPHIMURIUM, Strain/Indicator: TA1535, Metabolic Activation: RAT, LIVER, S-9, AROCLOR 1254, Method: PREINCUBATION); “inactive; negative” (Test System: AMES SALMONELLA TYPHIMURIUM, Strain/Indicator: TA1537, Metabolic Activation: HAMSTER, LIVER, S-9, AROCLOR 1254, Method: PREINCUBATION). For the same compound, the mutagenic call is, setting by setting: under setting [4], “inactive; negative”; (Test System: AMES SALMONELLA TYPHIMURIUM, Strain/Indicator: TA1537, Metabolic Activation: RAT, LIVER, S-9, AROCLOR 1254, Method: PREINCUBATION) “inactive; negative”.

With `CCOCC(=O)O`, the mutagenic call is “inactive; negative” (Test System: AMES SALMONELLA TYPHIMURIUM, Strain/Indicator: TA97A, Metabolic Activation: NONE, Method: STANDARD PLATE); “inactive; negative” (Test System: AMES SALMONELLA TYPHIMURIUM, Strain/Indicator: TA97A, Metabolic Activation: RAT, LIVER, S-9, AROCLOR 1254, Method: STANDARD PLATE); “inactive; negative” under setting [5]; “inactive; negative” under setting [6]; “inactive; negative” under setting [7]; “inactive; negative” under setting [8]. For the same compound, the mutagenic call is “inactive; negative” under setting [9] and “inactive; negative” (Test System: AMES SALMONELLA TYPHIMURIUM, Strain/Indicator: TA102, Metabolic Activation: RAT, LIVER, S-9, AROCLOR 1254, Method: STANDARD PLATE).

With `O=C1O[C@H]([C@@H](O)CO)C(O)=C1O`, the mutagenic call reads like this: (End Point: IN VITRO CHROMOSOMAL ABERRATIONS, Test System: CHO CELLS, Metabolic Activation: RAT, LIVER, S-9, AROCLOR 1254) “inactive; negative”; (End Point: IN VITRO MICRONUCLEUS, Test System: CHINESE HAMSTER OVARY (CHO-K5), Metabolic Activation: NONE) “active; positive; no statistical analysis was performed”; (End Point: In vitro chromosomal aberrations, Test System: Chinese hamster lung CHL/IU cells, Metabolic Activation: None) “inactive; negative. toxicicity at highest dose”; (End Point: In vitro chromosomal aberrations, Test System: Chinese hamster ovary (CHO) cells, Metabolic Activation: None) “inactive; negative; vitamin c, alone or in combination with glutamine, reduced effect of d”; (End Point: In vitro chromosomal aberrations, Test System: Human peripheral blood lymphocytes, Metabolic Activation: None) “active; positive (structural changes); response at highest dose only”; (End Point: In vivo chromosomal aberrations, Test System: Bone marrow cells, Species: Rat, Strain/Sex: Wistar/Male and female, Route: Oral) “inactive; negative; vitamin c, alone or with glutamine, reduced effect of doxorubicin”. Further, the mutagenic call by setting is: (Test System: AMES SALMONELLA TYPHIMURIUM, Strain/Indicator: TA97, Metabolic Activation: HAMSTER, LIVER, S-9, AROCLOR 1254 (10 OR 30%), Method: PREINCUBATION) “inactive; negative”; (Test System: AMES SALMONELLA TYPHIMURIUM, Strain/Indicator: TA97, Metabolic Activation: NONE, Method: PREINCUBATION) “inactive; negative”; (Test System: AMES SALMONELLA TYPHIMURIUM, Strain/Indicator: TA97, Metabolic Activation: NONE, Method: STANDARD PLATE) “inactive; negative”; (Test System: AMES SALMONELLA TYPHIMURIUM, Strain/Indicator: TA97, Metabolic Activation: RAT, LIVER, S-9, AROCLOR 1254 (10 OR 30%), Method: PREINCUBATION) “inactive; negative”; (Test System: AMES SALMONELLA TYPHIMURIUM, Strain/Indicator: TA97, Metabolic Activation: RAT, LIVER, S-9, AROCLOR 1254, Method: STANDARD PLATE) “inactive; negative”; (Test System: AMES SALMONELLA TYPHIMURIUM, Strain/Indicator: TA98, Metabolic Activation: HAMSTER, LIVER, S-9, AROCLOR 1254 (10 OR 30%), Method: PREINCUBATION) “inactive; negative”. The mutagenic call is, setting by setting: under setting [1], “inactive; negative”; under setting [5], “inactive; negative”; (Test System: AMES SALMONELLA TYPHIMURIUM, Strain/Indicator: TA98, Metabolic Activation: RAT, LIVER, S-9, AROCLOR 1254 (10 OR 30%), Method: PREINCUBATION) “inactive; negative”; under setting [6], “inactive; negative”; (Test System: AMES SALMONELLA TYPHIMURIUM, Strain/Indicator: TA100, Metabolic Activation: HAMSTER, LIVER, S-9, AROCLOR 1254 (10 OR 30%), Method: PREINCUBATION) “inactive; negative”; under setting [2], “inactive; negative”. The mutagenic call by setting is: under setting [7], “inactive; negative”; (Test System: AMES SALMONELLA TYPHIMURIUM, Strain/Indicator: TA100, Metabolic Activation: RAT, LIVER, S-9, AROCLOR 1254 (10 OR 30%), Method: PREINCUBATION) “inactive; negative”; under setting [8], “inactive; negative”; under setting [9], “inactive; negative”; (Test System: AMES SALMONELLA TYPHIMURIUM, Strain/Indicator: TA104, Metabolic Activation: NONE, Method: STANDARD PLATE) “inactive; negative”; (Test System: AMES SALMONELLA TYPHIMURIUM, Strain/Indicator: TA1535, Metabolic Activation: HAMSTER, LIVER, S-9, AROCLOR 1254 (10 OR 30%), Method: PREINCUBATION) “inactive; negative”. Also, the mutagenic call was “inactive; negative” under setting [3]; “inactive; negative” (Test System: AMES SALMONELLA TYPHIMURIUM, Strain/Indicator: TA1535, Metabolic Activation: RAT, LIVER, S-9, AROCLOR 1254 (10 OR 30%), Method: PREINCUBATION); “inactive; negative” (Test System: AMES SALMONELLA TYPHIMURIUM, Strain/Indicator: TA1537, Metabolic Activation: HAMSTER, LIVER, S-9, AROCLOR 1254 (10 OR 30%), Method: PREINCUBATION); “inactive; negative” under setting [4]; “inactive; negative” (Test System: AMES SALMONELLA TYPHIMURIUM, Strain/Indicator: TA1537, Metabolic Activation: RAT, LIVER, S-9, AROCLOR 1254 (10 OR 30%), Method: PREINCUBATION); “inactive; negative. addition of sodium nitrite (100 ug/plate) increased mutagenic response” (Test System: E. coli, Strain/Indicator: YG5190 (WP2 uvrA/pKM101 deficient in mutM gene), Metabolic Activation: None, Method: Preincubation). In addition, the mutagenic call is, setting by setting: (Test System: E. coli, Strain/Indicator: YG5190 (WP2 uvrA/pKM101 deficient in mutM gene), Metabolic Activation: S9, Method: Preincubation) “inactive; negative. addition of sodium nitrite (100 ug/plate) increased mutagenic response”; (Test System: HCT116 COLON CANCER CELLS, Strain/Indicator: HCT116 CELLS (HPRT)/6-THIOGUANINE, Metabolic Activation: NONE, Method: STANDARD PLATE) “inactive; negative”.

Turning to `Cc1ccccc1-c1ccc(N)cc1`, the mutagenic call reads like this: under setting [5], “inactive; negative”; under setting [6], “active; positive”; under setting [7], “inactive; negative”; under setting [8], “active; positive”.
